Data reported in ChEMBL document CHEMBL5500405, “Design and Synthesis of Clinical Candidate PF-06852231 (CVL-231): A Brain Penetrant, Selective, Positive Allosteric Modulator of the M4 Muscarinic Acetylcholine Receptor” (J Med Chem, 2024).

Columns and labels:
[1] = Lipophilicity, logD of compound by shake flask method; format: physicochemical; settings: octanol/water
[2] = Stability of compound at pH 1 assessed as half-life by 1H NMR assay; format: physicochemical; settings: buffer
[3] = Unbound brain concentration in mouse at […], sc; format: ADME, organism-based; settings: in vivo, dose 3.2 mg/kg
[4] = Unbound plasma concentration in mouse at 10 mg/kg, sc; format: ADME, organism-based; settings: in vivo
[5] = Unbound plasma concentration in mouse at 1 mg/kg, sc; format: ADME, organism-based; settings: in vivo
[6] = Unbound brain concentration in mouse at 1 mg/kg, sc; format: ADME, organism-based; settings: in vivo
[7] = Unbound plasma concentration in mouse at […], sc; format: ADME, organism-based; settings: in vivo, dose 3.2 mg/kg
[8] = Unbound brain concentration in mouse at 10 mg/kg, sc; format: ADME, organism-based; settings: in vivo
[9] = Unbound brain concentration in mouse at 32 mg/kg, sc; format: ADME, organism-based; settings: in vivo
[10] = Unbound plasma concentration in mouse at 32 mg/kg, sc; format: ADME, organism-based; settings: in vivo

SMILES: Cc1cc(C)c2c(n1)CN(C(=O)CC1CC1)C2
- logD [1]: 1.84

SMILES: Cc1cc(C)c2c(n1)CN(C(=O)CC1CN(c3ccccc3)C1)C2
- half-life [2]: 9 min

SMILES: Cc1cc(C)c2c(n1)CN(C(=O)CC1CN(c3ccnc(C(F)(F)F)c3)C1)C2 [EMRACLIDINE]
- Drug uptake(free) [3]: 22 nM
- Cp(f) [4]: 219 nM
- Cp(f) [5]: 26 nM
- Drug uptake(free) [6]: 13 nM
- Cp(f) [7]: 47 nM
- Drug uptake(free) [8]: 105 nM
- Drug uptake(free) [9]: 240 nM
- Cp(f) [10]: 480 nM
